Assay results: patent US6441237B1, “Substituted 3-phenoxy- and 3-phenylalkyloxy-2-phenyl-propylamines” (Boehringer Ingelheim Pharma KG, priority 1999, dated 2002)

| SMILES | melting point [°C] |
| --- | --- |
| CCCNCC(COCc1ccccc1F)c1c(C)cccc1C.Cl (stereo not drawn) | 100 |
| COCCNCC(COCc1ccccc1F)c1c(C)cccc1C.Cl (stereo not drawn) | 77 |
| Cc1cccc(C)c1C(CNC(C)C)COCc1ccccc1F.Cl (stereo not drawn) | 123 |
| Cc1cccc(C)c1C(CNCC1CC1)COCc1c(F)cccc1Cl.Cl (stereo not drawn) | 154 |
| C=CCN(C)CC(c1c(C)cccc1C)C(OC)c1c(F)cccc1F.Cl (stereo not drawn) [11.55] | 116 |
| Br.Cc1cccc(C)c1C(CNCC1CCCO1)COCc1c(F)cccc1F (stereo not drawn) | 149 |
| Cc1cccc(C)c1C(CNCC1CCC1)COCc1ccccc1F.Cl (stereo not drawn) | 191 |
| Br.CCCN(CCC)CC(COCc1c(F)cccc1F)c1c(C)cccc1C (stereo not drawn) | 143 |
| Cc1cccc(C)c1C(CNC1CCCC1)COCc1ccccc1F.Cl (stereo not drawn) | 102 |
| Br.Cc1cccc(C)c1C(CNC(C)C)COCc1ccccc1F (stereo not drawn) | 111 |
| Cc1cccc(C)c1C(CNCC1CC1)COCc1ccccc1F.Cl (stereo not drawn) | 101 |
| Br.Cc1cccc(C)c1C(CNCC1CC1)COCc1ccccc1F (stereo not drawn) | 101 |
| C=C(C)CN(C)CC(c1c(C)cccc1C)C(OC)c1c(F)cccc1F.O=C(O)C(=O)O (stereo not drawn) | 128 |
| Cc1cccc(C)c1C(CNC1CCCC1)COCc1c(F)cccc1F.Cl (stereo not drawn) | 130 |
| Cc1cccc(C)c1COCC(CNCC1CC1)c1c(C)cccc1C.Cl (stereo not drawn) | 142 |

The next lines start with the values.

| melting point [°C] | SMILES |
| --- | --- |
| 112 | C#CCNCC(COCc1ccccc1F)c1c(C)cccc1C.Cl (stereo not drawn) |
| 119 | Cc1cccc(C)c1C(CNCC(C)C)COCc1c(F)cccc1F.Cl (stereo not drawn) |
| 128 | COCCNCC(COCc1c(F)cccc1F)c1c(C)cccc1C.Cl (stereo not drawn) |
| 138 | Cc1cccc(C)c1C(CNC(C)C)COCc1c(F)cccc1F.Cl (stereo not drawn) |
| 142 | CCCNCC(COCc1c(F)cccc1F)c1c(C)cccc1C.Cl (stereo not drawn) |
| 145 | Cc1cccc(C)c1C(CNCC1CC1)COCc1c(F)cccc1F.Cl (stereo not drawn) |
| 124 | C#CCNCC(COCc1c(F)cccc1F)c1c(C)cccc1C.Cl (stereo not drawn) [8.9] |
| 145 | C#CCNCC(COCc1c(F)cccc1F)c1c(C)cccc1C.Cl (stereo not drawn) [8.12] |
| 144 | Cc1cccc(C)c1C(COCc1c(F)cccc1F)CN(C)C.Cl (stereo not drawn) |
